Measured values published in PMC10510382, “Discovery of a First-in-Class Degrader for the Lipid Kinase PIKfyve” (Journal of Medicinal Chemistry, 2023).

Columns and labels:
von Hippel–Lindau (VHL) = molecular target: T1, von Hippel–Lindau (VHL) (Homo sapiens, UniProt P40337); assay: VHL-dependent degradation in VCaP cells: blocked by VL285; inactive hydroxy isomer […]dN does not degrade; type: cell-based
T1 construct: with PIKfyve

PIKfyve = molecular target: T2, PIKfyve (Homo sapiens, UniProt Q9Y2I7); assay: PROTAC degradation by immunoblot in VCaP cells (DC50), blocked by warhead […] and VL285; TMT proteomics; type: cell-based
T2 construct: with VHL
T2 sequence (Q9Y2I7 2-2098): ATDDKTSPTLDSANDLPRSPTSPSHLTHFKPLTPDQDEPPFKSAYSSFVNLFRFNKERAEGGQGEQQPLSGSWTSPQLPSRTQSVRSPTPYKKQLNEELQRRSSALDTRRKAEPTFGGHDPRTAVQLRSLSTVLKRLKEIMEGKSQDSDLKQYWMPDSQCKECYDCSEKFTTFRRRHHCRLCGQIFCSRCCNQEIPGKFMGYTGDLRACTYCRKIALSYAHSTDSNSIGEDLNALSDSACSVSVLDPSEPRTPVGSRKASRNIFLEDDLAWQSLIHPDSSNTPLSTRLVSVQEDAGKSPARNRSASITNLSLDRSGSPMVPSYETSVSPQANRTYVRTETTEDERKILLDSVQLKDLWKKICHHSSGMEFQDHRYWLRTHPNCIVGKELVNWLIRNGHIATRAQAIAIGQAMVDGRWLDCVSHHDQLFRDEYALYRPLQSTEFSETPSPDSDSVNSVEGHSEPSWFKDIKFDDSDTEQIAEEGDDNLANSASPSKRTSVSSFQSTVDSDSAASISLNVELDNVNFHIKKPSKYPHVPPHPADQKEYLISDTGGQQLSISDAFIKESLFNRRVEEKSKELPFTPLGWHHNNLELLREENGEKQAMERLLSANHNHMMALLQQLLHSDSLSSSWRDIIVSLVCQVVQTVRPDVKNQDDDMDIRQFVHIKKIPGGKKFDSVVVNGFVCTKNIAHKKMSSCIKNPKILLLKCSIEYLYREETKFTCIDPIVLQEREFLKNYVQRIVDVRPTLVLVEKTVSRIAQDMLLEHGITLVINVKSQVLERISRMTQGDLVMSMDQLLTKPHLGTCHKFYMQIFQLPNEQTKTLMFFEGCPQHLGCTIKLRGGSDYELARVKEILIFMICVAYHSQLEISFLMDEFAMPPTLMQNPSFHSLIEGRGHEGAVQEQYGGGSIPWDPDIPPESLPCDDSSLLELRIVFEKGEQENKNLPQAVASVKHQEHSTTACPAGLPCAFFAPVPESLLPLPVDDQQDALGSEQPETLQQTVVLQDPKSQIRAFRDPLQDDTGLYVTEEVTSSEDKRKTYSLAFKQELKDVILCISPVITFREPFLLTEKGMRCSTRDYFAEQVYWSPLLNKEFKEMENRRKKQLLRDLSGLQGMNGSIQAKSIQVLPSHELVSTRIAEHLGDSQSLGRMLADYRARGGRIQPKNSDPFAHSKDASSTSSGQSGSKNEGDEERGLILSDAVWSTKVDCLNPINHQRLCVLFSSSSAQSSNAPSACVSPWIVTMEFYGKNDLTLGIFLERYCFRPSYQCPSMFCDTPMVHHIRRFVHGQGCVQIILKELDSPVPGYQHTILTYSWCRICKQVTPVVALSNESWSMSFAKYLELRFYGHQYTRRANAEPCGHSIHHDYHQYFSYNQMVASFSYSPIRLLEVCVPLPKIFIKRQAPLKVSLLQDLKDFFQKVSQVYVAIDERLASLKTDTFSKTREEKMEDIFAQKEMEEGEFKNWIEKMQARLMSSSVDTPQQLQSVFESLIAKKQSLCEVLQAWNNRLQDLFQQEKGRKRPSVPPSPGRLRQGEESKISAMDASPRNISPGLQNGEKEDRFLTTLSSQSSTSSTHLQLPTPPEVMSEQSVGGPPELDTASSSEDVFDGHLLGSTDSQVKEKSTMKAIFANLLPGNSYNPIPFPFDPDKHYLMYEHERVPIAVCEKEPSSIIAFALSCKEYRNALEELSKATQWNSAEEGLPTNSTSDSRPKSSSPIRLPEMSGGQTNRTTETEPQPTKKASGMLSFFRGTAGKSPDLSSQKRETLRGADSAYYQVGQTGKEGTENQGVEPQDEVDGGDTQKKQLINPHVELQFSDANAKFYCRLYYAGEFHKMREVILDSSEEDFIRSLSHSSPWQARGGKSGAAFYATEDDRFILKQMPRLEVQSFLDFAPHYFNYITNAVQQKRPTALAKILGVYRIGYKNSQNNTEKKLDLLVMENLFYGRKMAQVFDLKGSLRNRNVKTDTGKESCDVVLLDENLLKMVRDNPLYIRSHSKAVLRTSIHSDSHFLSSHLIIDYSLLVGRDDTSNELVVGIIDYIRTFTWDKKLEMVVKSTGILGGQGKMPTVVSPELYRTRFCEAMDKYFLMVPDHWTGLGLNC

T1 sequence (P40337 whole entry): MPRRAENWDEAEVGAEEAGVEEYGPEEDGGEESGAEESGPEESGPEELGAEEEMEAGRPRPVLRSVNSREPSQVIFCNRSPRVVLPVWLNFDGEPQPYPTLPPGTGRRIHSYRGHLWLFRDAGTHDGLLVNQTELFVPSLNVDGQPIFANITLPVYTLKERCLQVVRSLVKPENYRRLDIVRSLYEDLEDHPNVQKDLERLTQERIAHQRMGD
T1 sequence (Q9Y2I7 2-2098 partner): as the sequence (Q9Y2I7 2-2098) above

With `Cc1cccc(/C=N/Nc2cc(N3CCOCC3)nc(OCCc3ccc(NC(=O)CCCCC(=O)N[C@H](C(=O)N4C[C@H](O)C[C@H]4C(=O)NCc4ccc(-c5scnc5C)cc4)C(C)(C)C)cc3)n2)c1` [12d, N^1-((S)-1-((2S,4R)-4-Hydroxy-2-((4-(4-methylthiazol-5-yl)benzyl)carbamoyl)pyrrolidin-1-yl)-3,3-dimethyl-1-oxobutan-2-yl)-N^6-(4-(2-((4-(2-((E)-3-methylbenzylidene)hydrazineyl)-6-morpholinopyrimidin-2-yl)oxy)ethyl)phenyl)adipamide] the “VHL-dependent degradation in VCaP cells: blocked by VL285; inactive hydroxy isom” value (von Hippel–Lindau (VHL)) was “PIK5-12d induced PIKfyve degradation in a VHL- and proteasome-dependent manner” and the DC50 (PIKfyve) was 1.48 nM.
